Where “and” joins values, the source holds several entries; their conditions need not be identical. Identical values can stand only once. Toxic doses and inconclusive results are not listed.
System: P388 leukemia ip, CD2F1 mice, survival T/C
Test: NCI In Vivo Anticancer Drug Screen. Data for tumor model P388 Leukemia (intraperitoneal) in CD2F1 (CDF1) mice
Settings: endpoint: median survival time, higher = longer survival
In short: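 Mice carrying the transplanted tumor received test compound or vehicle. Survival was recorded in each group, and the value is the treated-group measurement divided by that of the vehicle-treated control group.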

[1] = dose: 50.0 mg/kg/injection, schedule: Q01DX005 (ip), vehicle: Klucel (hydroxypropylcellulose) (HPC)
[2] = dose: 100.0 mg/kg/injection, schedule: Q01DX005 (ip), vehicle: Klucel (hydroxypropylcellulose) (HPC)
[3] = dose: 100.0 mg/kg/injection, schedule: Q04DX003 (ip), vehicle: saline with Tween-80
[4] = dose: 200.0 mg/kg/injection, schedule: Q04DX003 (ip), vehicle: saline with Tween-80
[5] = dose: 12.5 mg/kg/injection, schedule: Q04DX003 (ip), vehicle: saline with Tween-80
[6] = dose: 25.0 mg/kg/injection, schedule: Q04DX003 (ip), vehicle: saline with Tween-80
[7] = dose: 50.0 mg/kg/injection, schedule: Q04DX003 (ip), vehicle: saline with Tween-80
[8] = dose: 200.0 mg/kg/injection, schedule: Q04DX003 (ip), vehicle: saline
[9] = dose: 400.0 mg/kg/injection, schedule: Q04DX003 (ip), vehicle: saline
[10] = dose: 200.0 mg/kg/injection, schedule: Q01DX005 (ip), vehicle: Klucel (hydroxypropylcellulose) (HPC)
[11] = dose: 50.0 mg/kg/injection, schedule: Q01DX009 (ip), vehicle: saline
[12] = dose: 200.0 mg/kg/injection, schedule: Q01DX009 (ip), vehicle: saline
[13] = dose: 60.0 mg/kg/injection, schedule: Q01DX005 (ip), vehicle: saline with Tween-80
[14] = dose: 120.0 mg/kg/injection, schedule: Q01DX005 (ip), vehicle: saline with Tween-80

SMILES: CC(=O)Nc1cc2nc[nH]c2cn1
- T/C (dose: 100.0 mg/kg/injection, schedule: Q04DX002 (ip), vehicle: saline): 99 % of control
- T/C (dose: 200.0 mg/kg/injection, schedule: Q04DX002 (ip), vehicle: saline): 106 % of control
- T/C (dose: 400.0 mg/kg/injection, schedule: Q04DX002 (ip), vehicle: saline): 106 % of control

SMILES: COc1cc(O)c(CC=C(C)C)cc1O
- T/C [1]: 105 % of control
- T/C [2]: 101 % of control

SMILES: NC(N)=NC(N)=Nc1ccc2ccc3cccc4ccc1c2c34
- T/C [3]: 106 % of control
- T/C [4]: 111 % of control

SMILES: COC(=O)C(F)C(N)C(=O)O (stereo not drawn)
- T/C [5]: 100 % of control
- T/C [6]: 101 % of control
- T/C [7]: 99 % of control
- T/C [8]: 103 % of control
- T/C [9]: 90 % of control

SMILES: CC(=O)ON=C(C1CC1)C1CC1
- T/C (dose: 37.5 mg/kg/injection, schedule: Q01DX009 (ip), vehicle: other): 100 % of control
- T/C (dose: 75.0 mg/kg/injection, schedule: Q01DX009 (ip), vehicle: other): 106 % of control
- T/C (dose: 150.0 mg/kg/injection, schedule: Q01DX009 (ip), vehicle: other): 100 % of control
- T/C (dose: 300.0 mg/kg/injection, schedule: Q01DX009 (ip), vehicle: other): 110 % of control

SMILES: O=c1oc2c(c3c1CCCC3)c(=O)[nH]c1ccccc12
- T/C [1]: 111 % of control
- T/C [2]: 116 % of control
- T/C [10]: 115 % of control

SMILES: C=C(COC(=O)/C=C\C)C(=O)OCC
- T/C [11]: 106 % of control
- T/C (dose: 100.0 mg/kg/injection, schedule: Q01DX009 (ip), vehicle: saline): 99 % of control
- T/C [12]: 106 % of control

SMILES: N=Cc1cc([N+](=O)[O-])ccc1O
- T/C [13]: 105 % of control
- T/C [14]: 104 % of control

SMILES: Oc1ccc2ccccc2c1N=Nc1ccc(F)cc1
- T/C [3]: 100 % of control
- T/C [4]: 100 % of control
- T/C (dose: 400.0 mg/kg/injection, schedule: Q04DX003 (ip), vehicle: saline with Tween-80): 104 % of control

SMILES: O=CC(Br)C(Br)c1ccccc1 (stereo not drawn)
- T/C (dose: 6.25 mg/kg/injection, schedule: Q01DX009 (ip), vehicle: saline with Tween-80): 122 % of control
- T/C (dose: 6.25 mg/kg/injection, schedule: Q04DX003 (ip), vehicle: saline with Tween-80): 109 % of control
- T/C (dose: 12.5 mg/kg/injection, schedule: Q01DX009 (ip), vehicle: saline with Tween-80): 109 % of control
- T/C [5]: 109 % of control
- T/C (dose: 25.0 mg/kg/injection, schedule: Q01DX009 (ip), vehicle: saline with Tween-80): 100 % of control
- T/C [6]: 113 % of control

SMILES: Cn1c(=O)c2nc(-c3ccccc3)cnc2n(C)c1=O
- T/C (dose: 100.0 mg/kg/injection, schedule: Q01DX001 (ip), vehicle: saline): 99 % of control
- T/C (dose: 200.0 mg/kg/injection, schedule: Q01DX001 (ip), vehicle: saline): 96 % of control
- T/C (dose: 400.0 mg/kg/injection, schedule: Q01DX001 (ip), vehicle: saline): 111 % of control

SMILES: CCC(=O)NC(Cc1ccccc1F)C(=O)O (stereo not drawn)
- T/C (dose: 12.5 mg/kg/injection, schedule: Q01DX009 (ip), vehicle: saline): 101 % of control
- T/C (dose: 25.0 mg/kg/injection, schedule: Q01DX009 (ip), vehicle: saline): 88 % of control
- T/C [11]: 91 % of control and 93 % of control
- T/C [12]: 95 % of control

SMILES: CCCN(CCC)CCCCO
- T/C [7]: 195 % of control
- T/C [3]: 100 % of control
- T/C [4]: 100 % of control

SMILES: CC(=O)OC1C=CC2OC2(COC(=O)c2ccccc2)C1OC(C)=O (stereo not drawn)
- T/C (dose: 2.5 mg/kg/injection, schedule: Q01DX009 (ip), vehicle: Klucel (hydroxypropylcellulose) (HPC)): 87 % of control
- T/C (dose: 5.0 mg/kg/injection, schedule: Q01DX009 (ip), vehicle: Klucel (hydroxypropylcellulose) (HPC)): 99 % of control
- T/C (dose: 10.0 mg/kg/injection, schedule: Q01DX009 (ip), vehicle: Klucel (hydroxypropylcellulose) (HPC)): 92 % of control
- T/C (dose: 28.75 mg/kg/injection, schedule: Q01DX005 (ip), vehicle: saline + Tween-80 + alcohol): 100 % of control
- T/C (dose: 57.5 mg/kg/injection, schedule: Q01DX005 (ip), vehicle: saline + Tween-80 + alcohol): 102 % of control
- T/C (dose: 115.0 mg/kg/injection, schedule: Q01DX005 (ip), vehicle: saline + Tween-80 + alcohol): 100 % of control
- T/C (dose: 230.0 mg/kg/injection, schedule: Q01DX005 (ip), vehicle: saline + Tween-80 + alcohol): 100 % of control

SMILES: O=C(O)CS(=O)(=O)Cc1ccc(Cl)cc1Cl
- T/C (dose: 60.0 mg/kg/injection, schedule: Q01DX005 (ip), vehicle: suspension in saline): 103 % of control
- T/C (dose: 120.0 mg/kg/injection, schedule: Q01DX005 (ip), vehicle: suspension in saline): 112 % of control
- T/C (dose: 240.0 mg/kg/injection, schedule: Q01DX005 (ip), vehicle: suspension in saline): 96 % of control

SMILES: [Se]=P(N1CC1)(N1CC1)N1CC1
- T/C (dose: 13.75 mg/kg/injection, schedule: Q01DX001 (ip), vehicle: Klucel (hydroxypropylcellulose) (HPC)): 119 % of control
- T/C (dose: 27.5 mg/kg/injection, schedule: Q01DX001 (ip), vehicle: Klucel (hydroxypropylcellulose) (HPC)): 155 % of control

SMILES: CC1(C)C2CC=C(C[P+](c3ccccc3)(c3ccccc3)c3ccccc3)C1C2 (stereo not drawn)
- T/C (dose: 1.25 mg/kg/injection, schedule: Q01DX009 (ip), vehicle: saline with Tween-80): 119 % of control
- T/C (dose: 2.5 mg/kg/injection, schedule: Q01DX009 (ip), vehicle: saline with Tween-80): 119 % of control

SMILES: CCOC(=O)C1=C(C(=O)c2ccc(C)cc2)C(c2ccc([N+](=O)[O-])cc2)C(C(=O)c2ccc(C)cc2)=C(C(=O)OCC)N1
- T/C [13]: 90 % of control
- T/C [14]: 90 % of control

SMILES: Cc1ccc2c(c1)-c1nc(N)ncc1C(O)O2 (stereo not drawn)
- T/C (dose: 100.0 mg/kg/injection, schedule: Q04DX003 (ip), vehicle: saline): 110 % of control
- T/C [8]: 96 % of control
- T/C [9]: 100 % of control

SMILES: C1CCC2(CC1)CSC2.[Br][Hg][Br]
- T/C (dose: 6.25 mg/kg/injection, schedule: Q01DX001 (ip), vehicle: saline with Tween-80): 89 % of control
- T/C (dose: 12.5 mg/kg/injection, schedule: Q01DX001 (ip), vehicle: saline with Tween-80): 87 % of control

SMILES: Nc1nc(-c2ccccc2)c(CCCNc2ccc(C(=O)NC(CCC(=O)O)C(=O)O)cc2)c(=O)[nH]1 (stereo not drawn)
- T/C [1]: 102 % of control
- T/C [2]: 102 % of control
- T/C [10]: 106 % of control

SMILES: CN(CN(C)N=Nc1ccc(Cl)cc1)CN(C)N=Nc1ccc(Cl)cc1
- T/C (dose: 60.0 mg/kg/injection, schedule: Q01DX005 (ip), vehicle: Klucel (hydroxypropylcellulose) (HPC)): 104 % of control
- T/C (dose: 120.0 mg/kg/injection, schedule: Q01DX005 (ip), vehicle: Klucel (hydroxypropylcellulose) (HPC)): 110 % of control
- T/C (dose: 240.0 mg/kg/injection, schedule: Q01DX005 (ip), vehicle: Klucel (hydroxypropylcellulose) (HPC)): 110 % of control

SMILES: O=C1CCC(C(=O)N2CCCC2)N1 (stereo not drawn)
- T/C (dose: 50.0 mg/kg/injection, schedule: Q01DX005 (ip), vehicle: saline): 96 % of control and 100 % of control
- T/C (dose: 100.0 mg/kg/injection, schedule: Q01DX005 (ip), vehicle: saline): 104 % of control and 98 % of control
- T/C (dose: 200.0 mg/kg/injection, schedule: Q01DX005 (ip), vehicle: saline): 104 % of control and 97 % of control

SMILES: COc1ccc2ccc(=O)oc2c1C1=C(C)C(=O)OC1
- T/C (dose: 2.0 mg/kg/injection, schedule: Q01DX009 (ip), vehicle: Klucel (hydroxypropylcellulose) (HPC)): 108 % of control
- T/C (dose: 4.0 mg/kg/injection, schedule: Q01DX009 (ip), vehicle: Klucel (hydroxypropylcellulose) (HPC)): 100 % of control
- T/C (dose: 8.0 mg/kg/injection, schedule: Q01DX009 (ip), vehicle: Klucel (hydroxypropylcellulose) (HPC)): 98 % of control
- T/C (dose: 16.0 mg/kg/injection, schedule: Q01DX009 (ip), vehicle: Klucel (hydroxypropylcellulose) (HPC)): 108 % of control

SMILES: Nc1cc2c(c[n+](CCCCCCCCCBr)c3ccccc23)c2ccccc12
- T/C (dose: 1.56 mg/kg/injection, schedule: Q04DX003 (ip), vehicle: other): 155 % of control
- T/C (dose: 3.13 mg/kg/injection, schedule: Q04DX003 (ip), vehicle: other): 155 % of control
- T/C (dose: 6.25 mg/kg/injection, schedule: Q04DX003 (ip), vehicle: other): 150 % of control

SMILES: CN1CCS(=O)(=O)C2CCCCC2C1=O (stereo not drawn)
- T/C (dose: 50.0 mg/kg/injection, schedule: Q01DX009 (ip), vehicle: saline with Tween-80): 96 % of control
- T/C (dose: 100.0 mg/kg/injection, schedule: Q01DX009 (ip), vehicle: saline with Tween-80): 104 % of control
- T/C (dose: 200.0 mg/kg/injection, schedule: Q01DX009 (ip), vehicle: saline with Tween-80): 96 % of control

— PubChem BioAssay AID330 (DTP/NCI, 2004)
